# According to patent US20130196362A1, “DIARYLAMINE-BASED FLUOROGENIC PROBES FOR DETECTION OF PEROXYNITRITE” (THE UNIVERSITY OF HONG KONG, priority 2012, published 2013):
# Experiments:
# [1] = Reactivity of probe toward different ROS and RNS (selectivity) in phosphate buffer; conditions: for increase in fluorescence intensity with peroxynitrite versus other ROS and RNS: OCl-, pH 7.4
# Protocol: (§1) FIG. 1A depicts fluorescence spectra showing fluorescence intensities of compound 2 after treatment with different amounts of peroxynitrite. […] The spectra were acquired by dissolving Compound 2 in 0.1 M phosphate buffer at pH 7.4 to form a 1 μM solution, with excitation and emission spectra at 510 nm and 530 nm, respectively. The concentration of highly reactive oxygen species hydroxyl radical (.OH), hypochlorous acid (^−OCl), and peroxynitrite (ONOO^−) is 1 μM. The concentration of ^1O2, O2.^−, NO, ROO. and H2O2 is 10 μM.
# (§2) FIG. 2A depicts fluorescence spectra showing fluorescence intensities of Compound 11 after treatment with different amounts of peroxynitrite. […] The spectra were acquired by dissolving […] in 0.1M phosphate buffer at pH 7.4 to form a 2 μM solution, with excitation and emission at 547 nm and 570 nm, respectively. The concentration of highly reactive oxygen species hydroxyl radical (.OH), hypochlorous acid (^−OCl), and peroxynitrite (ONOO^−) is 2 μM. The concentration of ^1O2, O2.^−, NO, ROO. and H2O2 is 20 μM.
# (§3) FIG. 3A depicts fluorescence spectra showing fluorescence intensities of Compound 22 after treatment with different amounts of peroxynitrite. […] The spectra were acquired by dissolving Compound 22 in 0.1M phosphate buffer at pH 7.4 to form a 5 μM solution, with excitation at 600 nm and emission at 617 nm, respectively. The concentration of highly reactive oxygen species hydroxyl radical (.OH), hypochlorous acid (^−OCl), and peroxynitrite (ONOO^−) is 5 μM. The concentration of ^1O2, O2.^−, NO, ROO. and H2O2 is 50 μM.
# as §3, with “4A” for “3A”, “25” for “22”, “650” for “600”, “665” for “617”
# (§4) FIG. 5A depicts fluorescence spectra showing fluorescence intensities of Compound 30 after treatment with different amounts of peroxynitrite. […] The spectra were acquired by dissolving Compound 30 in 0.1 M phosphate buffer at pH 7.4 and exciting at 515 nm. The concentration of highly reactive oxygen species hypochlorous acid (^−OCl) and peroxynitrite (ONOO^−) is 1 μM. The concentration of hydroxyl radical (.OH) is 1 μM or 10 μM. The concentration of ^1O2, O2.^−, NO, ROO. and H2O2 is 10 μM or 100 μM. (see figure for exact concentrations of certain ROS and RNS)
# (§5) The reactivity of Compound 2 is compared toward different reactive oxygen species (ROS) and reactive nitrogen species (RNS). Specifically, the 1 μM solution of compound 2 is treated with various ROS and RNS. The concentration of highly reactive oxygen species (hydroxyl radical (.OH), hypochlorous acid (^−OCl), and peroxynitrite (ONOO^−)) is 1 μM. The concentration of ^1O2, O2.^−, NO, ROO. and H2O2 is 10 μM.
# as §5, with “Compound 11” for “Compound 2”, “compared with” for “compared toward”, “the 2” for “the 1”, “compound 11” for “compound 2”, “is 2” for “is 1”, “is 20” for “is 10”
# The reactivity of Compound 22 is compared with different reactive oxygen species (ROS) and reactive nitrogen species (RNS). Specifically, the 5 μM solution of compound 22 is treated with various ROS and RNS. The concentration of highly reactive oxygen species (hydroxyl radical (.OH), hypochlorous acid (^−OCl), and peroxynitrite (ONOO^−)) is 5 μM. The concentration of ^1O2, O2.^−, NO, ROO. and H2O2 is 50 μM. […]
# [2] = Fluorescence response of probe to increasing peroxynitrite in phosphate buffer
# Protocol: as §1, §2, §3
# as §3, with “4A” for “3A”, “25” for “22”, “650” for “600”, “665” for “617”
# as §4
# Specifically, Compound 2 is dissolved in 0.1 M phosphate buffer at pH 7.4 to form a 1 μM solution, with excitation and emission spectra at 510 nm and 530 nm, respectively. The 1 μM solution of Compound 2 is treated with peroxynitrite at various concentrations.
# Specifically, Compound 11 is dissolved in 0.1 M phosphate buffer at pH 7.4 to form a 2 μM solution, with excitation and emission spectra at 547 nm and 570 nm, respectively. The 2 μM solution of Compound 11 is treated with peroxynitrite at various concentrations.
# Specifically, Compound 22 is dissolved in 0.1 M phosphate buffer at pH 7.4 to form a 5 μM solution, with excitation and emission spectra at 600 nm and 617 nm, respectively. The 5 μM solution of Compound 22 is treated with peroxynitrite at various concentrations. […]
# [3] = system: SH-SY5Y neuroblastoma cells; test: Fluorescent microscopy of SH-SY5Y cells with or without SIN-1; format: cell-based, Human; conditions: incubated 1 hr; for fluorescence in the absence of stimulants: washed with PBS, no SIN-1; for fluorescence after treatment with stimulants: with SIN-1
# Protocol: SH-SY5Y cells were co-stained with different compounds with or without SIN-1 for 1 h, and then washed quickly with PBS for 3 times and maintained in non-phenol red medium. Left: no SIN-1 treatment; Right: with SIN-1 treatment.
# SH-SY5Y cells were co-stained with different compounds with or without SIN-1 for 1 h, and then washed quickly with PBS for 3 times and maintained in non-phenol red medium. Left: no SIN-1 treatment; Middle: with 1 mM SIN-1 treatment; Right: with 100 μM SIN-1 treatment.
# SH-SY5Y cells were co-stained with different compounds with or without SIN-1 for 1 h, and then washed quickly with PBS for 3 times and maintained in non-phenol red medium. Left: no SIN-1 treatment; Middle: with 100 μM SIN-1 treatment; Right: with 200 μM SIN-1 treatment.
# (§6) Human SH-SY5Y neuroblastoma cells (ATCC, USA) were maintained in high glucose Dulbecco's Modified Eagle Medium (DMEM, Hyclone) supplemented with 10% fetal bovine serum (FBS, Gibco), 1% penicillin/streptomycin (PS, Gibco) and 1% L-glutamine (Gibco). Mouse C17.2 neural progenitor cells (ATCC, USA) were maintained in high glucose Dulbecco's Modified Eagle Medium supplemented with 8% fetal bovine serum (Gibco), 4% horse serum (Gibco), 1% penicillin/streptomycin and 1% L-glutamine. Mouse RAW264.7 macrophage cells (ATCC, USA) were maintained in high glucose Dulbecco's Modified Eagle Medium (DMEM, Hyclone) supplemented with 10% fetal bovine serum (Gibco), 1% penicillin/streptomycin (Gibco) and 1% L-glutamine.
# (§7) Generally, cells were grown to confluence prior to experiment. Cells were incubated with Compounds) 6, 7, 8, 14, 20, 21, 24, 27, and 32, respectively for 1 hr, and then washed three times with PBS buffer.
# [4] = system: RAW264.7 macrophage cells; test: Fluorescent microscopy of RAW264.7 macrophages stimulated with LPS and IFN-γ; format: cell-based, Mouse; conditions: 500 nM
# Protocol: The macrophage cells were incubated with Compound 27 at a concentration of 500 nM. Upper: Control; Lower: The macrophages were stimulated with LPS and IFN-γ for 14 hr. Left: Nuclear staining with Hoechst; Middle: Compound 27; Right: Merged.
# as §6, §7
# [5] = system: C17.2 neural progenitor cells; test: Fluorescent microscopy of C17.2 cells with or without SIN-1; format: cell-based, Mouse; conditions: for fluorescence in the absence of stimulants: no SIN-1; for fluorescence after treatment with stimulants: with SIN-1
# Protocol: The cells were incubated with Compound 20 or 21 at a concentration of 1 μM, and then treated with (Lower) or without (Upper) SIN-1.
# The cells were incubated with Compound 32 at a concentration of 5 μM.
# as §6, §7
smiles,measurement,setting,value
CN(c1ccc(O)cc1)c1ccc2c(-c3ccc(C(=O)N(CC(=O)O)CC(=O)O)cc3C(=O)O)c3ccc(=O)cc-3oc2c1 [Compound 2],increase in fluorescence intensity with peroxynitrite versus other ROS and RNS,"[1]; 1 μM probe, .OH, ONOO- 1 μM, 1O2, O2.-, NO, ROO., H2O2 10 μM",much higher increase in fluorescence intensity
same,fluorescence intensity after treatment with peroxynitrite at various concentrations,"[2]; 1 μM solution in 0.1 M phosphate buffer pH 7.4, excitation 510 nm, emission 530 nm",increases with increasing concentration of peroxynitrite
COC(=O)CCN(CCC(=O)OC)C(=O)c1ccc2c(c1)C(=O)OC21c2ccc(OC(C)=O)cc2Oc2cc(N(C)c3ccc(O)cc3)ccc21 (centres unmarked) [Compound 8],fluorescence in the absence of stimulants,[3],very weak fluorescence
same,fluorescence after treatment with stimulants,[3],strongly induced
Cc1cc(C(=O)O)ccc1C1=C2C=CC(=O)C=C2[Si](C)(C)c2cc(N(C)c3ccc(O)cc3)ccc21 [Compound 22],increase in fluorescence intensity with peroxynitrite versus other ROS and RNS,"[1]; 5 μM probe, ex 600/em 617 nm, .OH, ONOO- 5 μM, 1O2, O2.-, NO, ROO., H2O2 50 μM",much higher increase in fluorescence intensity
same,fluorescence intensity after treatment with peroxynitrite at various concentrations,"[2]; 5 μM solution in 0.1 M phosphate buffer pH 7.4, excitation 600 nm, emission 617 nm",increases with increasing concentration of peroxynitrite
CC[N+]1=c2cc3c(cc2C(C)CC1(C)C)=C(c1ccc(C(=O)N(CC(=O)OC)CC(=O)OC)cc1C)c1ccc(N(C)c2ccc(O)cc2)cc1[Si]3(C)C (centres unmarked) [Compound 27],fluorescence after treatment with stimulants,[4]; LPS and IFN-γ for 14 hr,strongly induced
same,fluorescence in the absence of stimulants,[4]; control,very weak fluorescence
CC[N+]1=c2cc3c(cc2C(C)CC1(C)C)=C(c1ccc(CCl)cc1C)c1ccc(N(C)c2ccc(O)cc2)cc1O3 (centres unmarked) [Compound 20],fluorescence in the absence of stimulants,[5],very weak fluorescence
same,fluorescence after treatment with stimulants,[5],strongly induced
COC(=O)CN(CC(=O)OC)C(=O)c1ccc(C2=C3C=CC(=O)C=C3[Si](C)(C)c3cc(N(C)c4ccc(O)cc4)ccc32)c(C)c1 [Compound 24],fluorescence in the absence of stimulants,[3],very weak fluorescence
same,fluorescence after treatment with stimulants,[3],strongly induced
COC(=O)CN(CC(=O)OC)C(=O)c1ccc2c(c1)C(=O)OC21c2ccc(OC(C)=O)cc2Oc2cc(N(C)c3ccc(O)cc3)ccc21 (centres unmarked) [Compound 7],fluorescence in the absence of stimulants,[3],very weak fluorescence
same,fluorescence after treatment with stimulants,[3],strongly induced
CN(c1ccc(O)cc1)c1ccc2c(-c3ccccc3C(=O)N3CCN(C(=O)CCCC[P+](c4ccccc4)(c4ccccc4)c4ccccc4)CC3)c3ccc(=O)cc-3oc2c1 [Compound 30],increase in fluorescence intensity with peroxynitrite versus other ROS and RNS,"[1]; 1 μM solution of compound 30, ex 515 nm, em 540 nm, ONOO- 1 μM, .OH 1 or 10 μM, others 10 or 100 μM",sensitively and selectively detects peroxynitrite
same,emission maximum,"[1]; 0.1 M phosphate buffer pH 7.4, exciting at 515 nm",540 nm
same,fluorescence intensity after treatment with peroxynitrite at various concentrations,"[2]; 1 μM solution in 0.1 M phosphate buffer pH 7.4, excited at 515 nm",increases with increasing concentration of peroxynitrite
CC1CC(C)(C)[N+](CCCC(=O)O)=c2cc3c(cc21)=C(c1ccccc1C(=O)O)c1cc(Cl)c(N(C)c2ccc(O)cc2)cc1O3 (centres unmarked) [Compound 11],increase in fluorescence intensity with peroxynitrite versus other ROS and RNS,"[1]; 2 μM probe, .OH, ONOO- 2 μM, 1O2, O2.-, NO, ROO., H2O2 20 μM",much higher increase in fluorescence intensity
same,fluorescence intensity after treatment with peroxynitrite at various concentrations,"[2]; 2 μM solution in 0.1 M phosphate buffer pH 7.4, excitation 547 nm, emission 570 nm",increases with increasing concentration of peroxynitrite
CC[N+]1=c2cc3c(cc2C(C)CC1(C)C)=C(c1ccc(C)cc1C)c1ccc(N(C)c2ccc(O)cc2)cc1O3 (centres unmarked) [Compound 21],fluorescence in the absence of stimulants,[5],very weak fluorescence
same,fluorescence after treatment with stimulants,[5],strongly induced
CC[N+]1=c2cc3c(cc2C(C)CC1(C)C)=C(c1ccc(C(=O)O)cc1C)c1ccc(N(C)c2ccc(O)cc2)cc1[Si]3(C)C (centres unmarked) [Compound 25],increase in fluorescence intensity with peroxynitrite versus other ROS and RNS,"[1]; 5 μM probe, ex 650/em 665 nm, .OH, ONOO- 5 μM, 1O2, O2.-, NO, ROO., H2O2 50 μM",much higher increase in fluorescence intensity
same,fluorescence intensity after treatment with peroxynitrite at various concentrations,"[2]; 5 μM solution in 0.1 M phosphate buffer pH 7.4, excitation 650 nm, emission 665 nm",increases with increasing concentration of peroxynitrite
